Entries after “also recorded” stand apart in the source; their conditions may differ.
Columns and labels:
nicotinic receptor = nicotinic receptor (Rattus norvegicus, UniProt P09483+P12390); assay: biochemical; type: binding
DMTS performance = details: monkey, in vivo; cited from earlier work
AChE = type: biochemical, electric eel and human
[1] = mouse, in vivo
electric eel AChE = electric eel AChE (Electrophorus electricus, UniProt O42275); type: biochemical
human erythrocyte AChE = human erythrocyte AChE (Homo sapiens, UniProt P22303); type: biochemical
Sequence of human erythrocyte AChE (P22303-2 with tags, fused parts or gaps limits assumed): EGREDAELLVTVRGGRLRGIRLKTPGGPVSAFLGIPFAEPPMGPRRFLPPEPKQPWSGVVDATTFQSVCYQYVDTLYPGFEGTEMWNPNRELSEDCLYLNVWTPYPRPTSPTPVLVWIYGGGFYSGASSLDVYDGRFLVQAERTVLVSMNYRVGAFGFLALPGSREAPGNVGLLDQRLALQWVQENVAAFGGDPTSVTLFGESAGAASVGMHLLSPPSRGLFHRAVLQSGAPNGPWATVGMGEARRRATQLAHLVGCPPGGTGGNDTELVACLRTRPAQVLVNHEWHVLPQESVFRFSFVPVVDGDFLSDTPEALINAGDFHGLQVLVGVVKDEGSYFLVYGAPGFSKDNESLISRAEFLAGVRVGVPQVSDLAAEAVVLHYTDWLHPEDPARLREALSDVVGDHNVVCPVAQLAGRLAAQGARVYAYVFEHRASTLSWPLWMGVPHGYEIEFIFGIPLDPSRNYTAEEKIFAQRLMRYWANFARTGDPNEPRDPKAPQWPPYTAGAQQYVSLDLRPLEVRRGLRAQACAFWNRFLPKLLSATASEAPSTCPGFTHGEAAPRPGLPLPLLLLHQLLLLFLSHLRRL

GA = tested on: GA; design: species or system Male ICR mice; details: mouse, in vivo
in vivo = details: mouse, po
[2] = target: T1, electric eel acetylcholinesterase (Electrophorus electricus, UniProt O42275); type: biochemical; details: 0.1m phosphate buffer
T1 sequence (O42275 24-633): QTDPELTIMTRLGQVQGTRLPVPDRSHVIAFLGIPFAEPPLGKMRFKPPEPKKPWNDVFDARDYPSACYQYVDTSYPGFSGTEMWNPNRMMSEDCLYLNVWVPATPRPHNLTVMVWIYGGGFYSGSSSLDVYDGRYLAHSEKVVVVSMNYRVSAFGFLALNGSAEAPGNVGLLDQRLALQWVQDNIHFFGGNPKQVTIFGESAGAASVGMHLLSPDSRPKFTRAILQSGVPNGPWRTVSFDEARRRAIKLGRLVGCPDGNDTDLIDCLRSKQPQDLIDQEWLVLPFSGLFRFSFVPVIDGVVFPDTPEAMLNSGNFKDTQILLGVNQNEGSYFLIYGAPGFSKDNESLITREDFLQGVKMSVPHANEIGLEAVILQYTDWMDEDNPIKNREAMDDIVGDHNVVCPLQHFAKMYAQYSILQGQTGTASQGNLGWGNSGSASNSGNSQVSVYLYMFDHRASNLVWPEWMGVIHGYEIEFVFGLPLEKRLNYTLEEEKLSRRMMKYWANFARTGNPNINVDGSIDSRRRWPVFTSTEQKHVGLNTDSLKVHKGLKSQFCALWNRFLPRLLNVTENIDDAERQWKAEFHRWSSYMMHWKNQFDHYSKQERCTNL

[3] = target: human erythrocyte acetylcholinesterase (Homo sapiens, UniProt P22303); type: biochemical; details: erythrocyte ache
Sequence of human erythrocyte acetylcholinesterase (P22303-2 with tags, fused parts or gaps limits assumed): as the sequence (P22303-2 with tags, fused parts or gaps limits assumed) above

[4] = target: T1, electric eel acetylcholinesterase; details: cited from earlier work

Sequence of nicotinic receptor (P12390 25-500): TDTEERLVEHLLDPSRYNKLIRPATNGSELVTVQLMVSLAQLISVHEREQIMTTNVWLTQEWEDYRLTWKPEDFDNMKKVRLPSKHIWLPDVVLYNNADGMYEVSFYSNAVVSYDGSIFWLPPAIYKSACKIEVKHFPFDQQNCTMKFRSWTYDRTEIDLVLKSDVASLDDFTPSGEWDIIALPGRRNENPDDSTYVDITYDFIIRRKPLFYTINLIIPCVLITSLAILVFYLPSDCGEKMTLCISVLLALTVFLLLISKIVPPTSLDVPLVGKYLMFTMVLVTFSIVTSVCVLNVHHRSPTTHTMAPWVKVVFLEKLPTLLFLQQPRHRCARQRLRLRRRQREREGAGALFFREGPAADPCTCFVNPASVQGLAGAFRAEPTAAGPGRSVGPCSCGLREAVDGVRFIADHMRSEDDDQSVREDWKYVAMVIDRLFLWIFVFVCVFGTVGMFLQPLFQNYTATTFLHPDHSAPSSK
Sequence of nicotinic receptor (P09483 31-630): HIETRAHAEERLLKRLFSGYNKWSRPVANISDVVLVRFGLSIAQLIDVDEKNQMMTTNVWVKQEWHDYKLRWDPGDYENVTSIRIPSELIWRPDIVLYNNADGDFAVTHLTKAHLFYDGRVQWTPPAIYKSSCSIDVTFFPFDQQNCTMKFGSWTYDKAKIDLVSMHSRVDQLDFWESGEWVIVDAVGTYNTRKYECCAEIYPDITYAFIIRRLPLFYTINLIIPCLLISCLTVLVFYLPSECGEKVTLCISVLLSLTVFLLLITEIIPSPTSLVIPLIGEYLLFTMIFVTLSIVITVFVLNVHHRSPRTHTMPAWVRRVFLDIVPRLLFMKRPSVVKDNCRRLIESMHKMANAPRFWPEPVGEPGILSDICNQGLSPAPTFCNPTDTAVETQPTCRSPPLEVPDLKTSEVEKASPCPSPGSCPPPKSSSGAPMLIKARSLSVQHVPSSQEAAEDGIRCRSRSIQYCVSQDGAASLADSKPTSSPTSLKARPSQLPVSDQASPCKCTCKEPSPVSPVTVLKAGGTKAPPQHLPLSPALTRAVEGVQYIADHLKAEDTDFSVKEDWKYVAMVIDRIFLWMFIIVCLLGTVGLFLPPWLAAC
Sequence of electric eel AChE (O42275 24-633): as the sequence (O42275 24-633) above

## C[N+](C)(C)CCOC(N)=O [Carbachol]
Nicotinic receptor
  IC50: 699 nM
  potency less than nicotine: about 18 fold

## Clc1cccc(Cl)c1N=C1NCCN1 [Clonidine, clonidine]
DMTS performance
  delay intervals at which DMTS is improved: improves DMTS performance to the greatest extent at medium delays
  duration of DMTS improvement after administration: at least 24 hr

## C[n+]1ccccc1C=NOCc1ccccc1 [Compound 1a, O-Benzyl-N-(1-methyl-2-pyridinemethylene) hydroxylamine chloride]
AChE
  mode of inhibition of AChE: pure competitive inhibition
[1]
  comparative drug toxicity: 1a>1b

## C[n+]1cccc(O)c1C=NOCc1ccccc1 [Compound 1b, O-Benzyl-N-(3-hydroxy-1-methyl-2-pyridinemethylene) hydroxylamine chloride]
AChE
  mode of inhibition of AChE: pure competitive inhibition
[1]
  comparative drug toxicity: 1b>1c

## CON=Cc1c(O)ccc[n+]1C [Compound 1c, O-Methyl-N-(3-hydroxy-1-methyl-2-pyridinemethylene) hydroxylamine chloride]
Electric eel AChE
  inhibition of electric eel AChE: did not inhibit either enzyme at concentrations up to 1 mM
Human erythrocyte AChE
  inhibition of human AChE: did not inhibit either enzyme at concentrations up to 1 mM
GA
  % survival: 0%
In vivo
  LD50 at 24 h: > 3200 µmol/kg

## C[n+]1cccc(O)c1C=NOCc1ccc(Cl)cc1 [Compound 1d, O-(p-Chlorobenzyl)-N-(3-hydroxy-1-methyl-2-pyridinemethylene) hydroxylamine chloride]
AChE
  mode of inhibition of AChE: pure competitive inhibition

## COc1ccc(CON=Cc2c(O)ccc[n+]2C)cc1 [Compound 1e, O-(p-Methoxybenzyl)-N-(3-hydroxy-1-methyl-2-pyridinemethylene) hydroxylamine chloride]
AChE
  mode of inhibition of AChE: pure competitive inhibition

## C[n+]1cccc(O)c1C=NO [Compound 1f]
Electric eel AChE
  inhibition of electric eel AChE: did not inhibit either enzyme at concentrations up to 1 mM
Human erythrocyte AChE
  inhibition of human AChE: did not inhibit either enzyme at concentrations up to 1 mM
GA
  % survival: 0%
[1]
  comparative drug toxicity: small increase in toxicity

## C[n+]1cc(O)ccc1C=NO [Compound 1g]
GA
  % survival: 0%
[1]
  comparative drug toxicity: small increase in toxicity

## C[n+]1cccc(O)c1C=NNC(=O)Nc1ccccc1.[Cl-] [Compound 3b, 3-Hydroxy-1-methyl-2-[[(N-phenylaminocarbonyl)hydrazono]methyl] pyridinium chloride]
AChE
  mode of inhibition of AChE: mixed-type inhibition; also recorded: noncompetitive kinetics

## C[n+]1ccccc1C=NNC(=O)C[n+]1ccccc1 [Compound 5b, 2-(1-Methyl-2-pyridinemethylene)-1-[2-(1-pyridinium)acetyl] hydrazine dichloride]
AChE
  mode of inhibition of AChE: mixed-type inhibition; also recorded: At concentrations up to 75 μM, 5b acts as a noncompetitive inhibitor; also recorded: at higher concentrations, 5b is an uncompetitive inhibitor

## CN1CCCC1c1cccnc1 (stereo not shown) [Nicotine]
DMTS performance
  improvement in DMTS performance: 5-10 % points

## CNC(=O)Oc1ccc2c(c1)[C@]1(C)CCN(C)[C@@H]1N2C [Physostigmine]
[2]
  kobs/[I] (eel): 140000 M⁻¹ s⁻¹
[3]
  kobs/[I] (human): 19000 M⁻¹ s⁻¹
Nicotinic receptor
  binding to nicotinic receptors: no selective binding to nicotinic receptors, even at mM concentrations
[4]
  kobs/[I] (literature value, footnote to eel column): 18500 M⁻¹ s⁻¹
DMTS performance
  delay intervals at which DMTS is improved: acts more evenly across short, medium and long delays
  duration of DMTS response: evokes responses only on the day of administration
  improvement in DMTS performance: 5-10 % points

## CN(C)C(=O)Oc1ccc[n+](C)c1 [Pyridostigmine, pyridostigmine]
[4]
  kobs/[I] (literature value, footnote to eel column): 843 M⁻¹ s⁻¹

Reference: patent US5714615A (priority 1994, dated 1998)
